Reference: US20090143392A1, “Methods of Treating Obesity and Metabolic Disorders” (ELBION GMBH, priority 2007, published 2009)

Key:
PDE10 from rat striatum = molecular target: T1, PDE10 from rat striatum (Rattus norvegicus, UniProt Q9QYJ6); experiment: Inhibition of PDE10 from rat striatum; format: biochemical; settings: 0.1 μM [3H]-cAMP, 37° C., 30 minutes
T1 construct: 0.5 g of the isolated and frozen striatum was homogenised; from tissue; host or cells: rat striatum, ion-exchange FPLC fractions with PDE10 activity
T1 sequence (Q9QYJ6 1-794): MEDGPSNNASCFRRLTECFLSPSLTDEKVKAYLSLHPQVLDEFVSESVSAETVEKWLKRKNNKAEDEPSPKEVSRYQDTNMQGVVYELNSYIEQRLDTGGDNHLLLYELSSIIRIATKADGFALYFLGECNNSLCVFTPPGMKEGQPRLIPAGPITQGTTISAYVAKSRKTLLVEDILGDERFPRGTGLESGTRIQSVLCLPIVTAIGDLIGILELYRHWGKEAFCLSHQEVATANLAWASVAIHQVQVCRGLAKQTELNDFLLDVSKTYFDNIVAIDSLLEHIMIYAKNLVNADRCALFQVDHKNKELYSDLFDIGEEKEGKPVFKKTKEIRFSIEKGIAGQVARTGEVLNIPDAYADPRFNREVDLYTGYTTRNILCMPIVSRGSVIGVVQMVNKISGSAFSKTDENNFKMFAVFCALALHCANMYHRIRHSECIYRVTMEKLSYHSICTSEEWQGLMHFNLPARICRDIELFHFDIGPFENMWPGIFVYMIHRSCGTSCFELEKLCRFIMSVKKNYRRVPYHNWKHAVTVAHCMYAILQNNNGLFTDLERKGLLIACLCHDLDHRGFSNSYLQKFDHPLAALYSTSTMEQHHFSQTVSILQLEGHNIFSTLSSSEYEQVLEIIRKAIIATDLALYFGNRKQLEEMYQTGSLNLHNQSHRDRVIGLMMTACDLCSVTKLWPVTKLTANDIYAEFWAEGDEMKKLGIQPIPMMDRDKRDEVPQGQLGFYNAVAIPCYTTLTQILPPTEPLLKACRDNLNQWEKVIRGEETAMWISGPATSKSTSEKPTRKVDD
Description: (§1) Phosphodiesterase isoenzyme 10 (PDE10) activity was determined in preparations of rat, pig and guinea pig striatum respectively. Striatum from male Wistar rats (180-200 g), male hybrid pigs (150 kg) and male guinea pigs (CRL (HA), 500 g) respectively were collected and frozen at −70° C.
(§2) For the enzymatic testing of PDE10 activity 0.5 g of the isolated and frozen striatum was homogenised in 10 ml 50 mM Tris/Mg-buffer at 4° C. and centrifuged for one hour at 100000 g.
(§3) Nonspecific activity was tested without the enzyme. […] For determination of IC50 values the Hill-plot, 2-parameter-model, was used.

PDE10 from pig striatum = molecular target: T2, PDE10 from pig striatum (Sus scrofa, UniProt A0A287B941); experiment: Inhibition of PDE10 from pig striatum; format: biochemical; settings: 0.1 μM [3H]-cAMP, 37° C., 30 minutes
T2 construct: "Striatum from male hybrid pigs (150 kg)"
Description: Phosphodiesterase isoenzyme 10 (PDE10) activity was determined in preparations of human recombinant PDE10A and PDE10 from pig striatum, respectively.
Striatum from male hybrid pigs (150 kg) were collected and frozen at −70° C.
At the day of preparation 0.5 g striatum was homogenised in 10 ml 50 mM Tris/Mg-buffer at 4° C. and centrifuged for one hour at 100000 g.
as §3, §1, §2

MK-801-induced psychosis = experiment: MK-801-induced psychosis: hyperactivity and stereotyped sniffing; format: in vivo; settings: female Wistar rats, MK-801 0.1 mg/kg i.p. 10 min before test, compound 30 min prior, recorded 1 h; for dose that significantly reversed MK-801-induced hyperactivity / dose that significantly reversed MK-801-induced stereotyped sniffing: p.o.
Description: Female Wistar rats (Crl: (WI) BR, Charles River, Sulzfeld, Germany) weighing 150 to 180 g were used for the MK-801-induced psychosis. Animals were housed under standard conditions in groups of five on a 12 h light/dark cycle (light on at 0600 h) with ad libitum access to food (Pellets, ssniff M/R 15, Spezialdiät GmbH, Soest/Westfalen) and water.
MK-801 (dizocilpine, MW 337.37) was obtained by Tocris, distributed by Biotrend Chemikalien GmbH, Köln, Germany.
Hydroxyethylcellulose was solved in distilled water.
MK-801 was solved in saline so that an administration volume of 0.5 ml/100 g was reached. The suspensions and solution were placed on a magnetic stirrer before and during dosing procedures.
The behaviour induced by the NMDA antagonist MK-801 is generally accepted as a rat model of psychosis. MK-801 induces stereotyped sniffing, hyperactivity and ataxia in rats after intraperitoneal administration.
Locomotor activity of the rats was recorded by the MotiTest Apparatus (TSE, Bad Homburg, Germany). The test area consisted of a squared arena (45×45 cm) with protective plexiglass walls (20 cm of height) where rats could freely move. Horizontal movements were recorded by 32 infrared photocells arranged along the bottom of each wall of the arena. The activity [sec] was measured by the computer program “ActiMot” (TSE, Bad Homburg, Germany).
Stereotyped sniffing was scored by the experimenter every five minutes for one hour (12 intervals) according to the method described by Andine et al. (1999). The scores of the 12 intervals were summed up at the end of the recording time.
The day of experiment the female rats were placed in the laboratory and received the test compound or vehicle at the appropriate time prior to test. MK-801 0.1 mg/kg was intraperitoneally administered 10 minutes prior to test.
At the beginning of the test the rats were placed in the centre of the squared arena of the MotiTest apparatus. Behaviour of the rats was recorded for one hour. After each run animals were removed and the boxes thoroughly cleaned and dried.
Results were analysed by one way analysis of variance (ANOVA). Tukey test was used for individual comparison. P<0.05 was regarded as significant.

[1] = molecular target: PDE10 from guinea pig striatum (Cavia porcellus, UniProt A0A286XN47); experiment: Inhibition of PDE10 from guinea pig striatum; format: biochemical; settings: 0.1 μM [3H]-cAMP, 37° C., 30 minutes
Description: as §1, §2, §3

[2] = tested on: apomorphine-induced stereotypies; settings: rats; cited from earlier work
[3] = tested on: haloperidol-induced catalepsy; settings: rats; cited from earlier work
[4] = tested on: dopamine concentration in rat brain; settings: cited from earlier work

Chain of PDE10 from guinea pig striatum (A0A286XN47 1-773): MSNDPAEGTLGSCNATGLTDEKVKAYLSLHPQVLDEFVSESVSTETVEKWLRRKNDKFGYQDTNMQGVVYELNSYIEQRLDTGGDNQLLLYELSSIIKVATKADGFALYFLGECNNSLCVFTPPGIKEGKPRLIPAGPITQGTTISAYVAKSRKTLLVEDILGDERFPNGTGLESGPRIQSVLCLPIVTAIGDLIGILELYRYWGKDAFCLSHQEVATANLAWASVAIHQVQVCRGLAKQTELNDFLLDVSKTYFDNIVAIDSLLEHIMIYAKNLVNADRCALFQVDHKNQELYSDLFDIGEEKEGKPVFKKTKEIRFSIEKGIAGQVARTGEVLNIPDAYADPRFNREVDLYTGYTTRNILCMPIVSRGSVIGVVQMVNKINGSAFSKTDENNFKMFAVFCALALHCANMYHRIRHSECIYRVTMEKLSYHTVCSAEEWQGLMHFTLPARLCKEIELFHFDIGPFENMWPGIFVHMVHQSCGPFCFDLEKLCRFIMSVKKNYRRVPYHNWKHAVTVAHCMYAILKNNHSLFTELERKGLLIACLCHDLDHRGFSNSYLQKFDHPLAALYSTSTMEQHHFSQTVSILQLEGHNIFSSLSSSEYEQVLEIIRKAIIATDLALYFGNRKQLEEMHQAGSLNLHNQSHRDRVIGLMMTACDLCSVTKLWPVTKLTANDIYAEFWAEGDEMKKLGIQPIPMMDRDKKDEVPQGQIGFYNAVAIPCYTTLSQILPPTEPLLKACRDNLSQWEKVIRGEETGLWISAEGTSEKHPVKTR

Compound | IC50 (PDE10 from rat striatum) | IC50 (PDE10 from pig striatum) | dose that significantly reversed MK-801-induced stereotyped sniffing (MK-801-induced psychosis) | also measured
1-ethyl-4-(N-formyl-amino)-8-methoxy-3-methyl-imidazo[1,5-a]pyrido[3,2-e]pyrazine [Example 36b] | 241 nM | 80 nM | – | –
4-(N-acetyl-amino)-8-methoxy-3-methyl-1-phenyl-imidazo[1,5-a]pyrido[3,2-e]pyrazine [Example 42b] | 95 nM | 41 nM | – | –
8-methoxy-3-methyl-1-propyl-imidazo[1,5-a]pyrido[3,2-e]pyrazine [Example 35a] | 61 nM | 40 nM | ≥ 30 mg/kg | dose that significantly reversed MK-801-induced hyperactivity (MK-801-induced psychosis): 30 mg/kg
3,4-dimethyl-8-(piperidin-1-yl)-methoxy-1-propyl-imidazo[1,5-a]pyrido[3,2-e]pyrazine [Example 55a] | – | 14 nM | 30 mg/kg | dose that significantly reversed MK-801-induced hyperactivity (MK-801-induced psychosis): 30 mg/kg
CCc1nc(C)c2c(Cl)nc3cccnc3n12 [Intermediate A11] | 171 nM | 97 nM | – | melting point: 117 to 120 °C
4-amino-8-methoxy-3-methyl-1-propyl-imidazo[1,5-a]pyrido[3,2-e]pyrazine [Example 1b] | – | – | ≥ 10 mg/kg | dose that significantly reversed MK-801-induced hyperactivity (MK-801-induced psychosis): ≥ 10 mg/kg
4-ethoxycarbonylamino-8-methoxy-3-methyl-1-propyl-imidazo[1,5-a]pyrido[3,2-e]pyrazine [Example 63a] | 563 nM | 189 nM | – | –
COc1ccc(Cc2nccc3cc(OC)c(OC)cc23)cc1OC [Papaverine] | – | – | – | effect on apomorphine-induced stereotypies [2]: reduces apomorphine-induced stereotypies; effect on haloperidol-induced catalepsy [3]: increases haloperidol-induced catalepsy; effect on dopamine concentration in rat brain [4]: reducing dopamine concentration in rat brain
CCCc1nc(C)c2n1-c1nc(OC)ccc1NC2 [Example 91a, 8-methoxy-3-methyl-1-propyl-4,5-dihydro-imidazo[1,5-a]pyrido[3,2-e]pyrazine] | 159 nM | 108 nM | – | dose that significantly reduced MK-801-induced hyperactivity (MK-801-induced psychosis; i.p.): ≥ 15 mg/kg; dose that significantly reduced MK-801-induced stereotyped sniffing (MK-801-induced psychosis; i.p.): ≥ 15 mg/kg; melting point: 157 to 160 °C
CCCc1nc(C)c2c(N(S(C)(=O)=O)S(C)(=O)=O)nc3ccc(OC)nc3n12 [Example 70a, 4-(N,N-bis-methylsulfonyl)-amino-8-methoxy-3-methyl-1-propyl-imidazo[1,5-a]pyrido[3,2-e]pyrazine] | 72 nM | – | – | –
4-cyano-8-methoxy-3-methyl-1-propyl-imidazo[1,5-a]pyrido[3,2-e]pyrazine [Example 29a] | – | – | ≥ 5 mg/kg | IC50 [1]: 18 nM
8-methoxy-3-methyl-4-(N-propionyl-amino)-1-propyl-imidazo[1,5-a]pyrido[3,2-e]pyrazine [Example 43b] | 2410 nM | 896 nM | – | –
CCCc1nc(C)c2n1-c1nc(OC)ccc1N(C(C)=O)C2 [Example 95a, 5-acetyl-8-methoxy-3-methyl-1-propyl-4,5-dihydro-imidazo[1,5-a]pyrido[3,2-e]pyrazine] | 335 nM | 222 nM | 30 mg/kg | dose that significantly reversed MK-801-induced hyperactivity (MK-801-induced psychosis): 30 mg/kg
4-(N-acetyl-amino)-1-ethyl-8-methoxy-3-methyl-imidazo[1,5-a]pyrido[3,2-e]pyrazine [Example 40b] | 220 nM | – | – | –

The next lines start with results.

IC50 (PDE10 from rat striatum) | IC50 (PDE10 from pig striatum) | Compound | dose that significantly reversed MK-801-induced stereotyped sniffing (MK-801-induced psychosis) | also measured
8 nM | 4 nM | 4-chloro-8-methoxy-3-methyl-1-propyl-imidazo[1,5-a]pyrido[3,2-e]pyrazine [Intermediate A1] | – | –
– | 0.5 nM | 4-amino-1-(2-chloro-phenyl)-8-methoxy-3-methyl-imidazo[1,5-a]pyrido[3,2-e]pyrazine [Example 11b] | ≥ 0.5 mg/kg | dose that significantly reversed MK-801-induced hyperactivity (MK-801-induced psychosis): ≥ 0.5 mg/kg
– | 20 nM | 4-cyano-8-methoxy-3-methyl-1-ethyl-imidazo[1,5-a]pyrido[3,2-e]pyrazine [Example 30a] | ≥ 10 mg/kg | IC50 [1]: 51 nM; dose that significantly reversed MK-801-induced hyperactivity (MK-801-induced psychosis): ≥ 10 mg/kg
– | 2 nM | 3,4-dimethyl-8-(2-propyl-4-methyl-imidazol-1-yl)-methoxy-1-propyl-imidazo[1,5-a]pyrido[3,2-e]pyrazine [Example 58a] | – | IC50 [1]: 4 nM
5 nM | 3 nM | 4-amino-8-methoxy-3-methyl-1-phenyl-imidazo[1,5-a]pyrido[3,2-e]pyrazine [Example 10b] | – | –
57 nM | 27 nM | 4-amino-3-methyl-1-propyl-imidazo[1,5-a]pyrido[3,2-e]pyrazine [Example 4b] | – | –
– | 6 nM | 3,4-dimethyl-8-methoxy-1-phenyl-imidazo[1,5-a]pyrido[3,2-e]pyrazine [Example 47a] | – | IC50 [1]: 15 nM
50 nM | 29 nM | 4-(N-formyl-amino)-8-methoxy-3-methyl-1-propyl-imidazo[1,5-a]pyrido[3,2-e]pyrazine [Example 37b] | – | –
11 nM | 5 nM | 8-methoxy-3-methyl-4-methylsulfonylamino-1-propyl-imidazo[1,5-a]pyrido[3,2-e]pyrazine [Example 69a] | – | IC50 [1]: 11 nM
35 nM | 6 nM | 8-methoxy-4-methoxycarbonylamino-3-methyl-1-propyl-imidazo[1,5-a]pyrido[3,2-e]pyrazine [Example 62a] | 5 mg/kg | IC50 [1]: 26 nM; dose that significantly reversed MK-801-induced hyperactivity (MK-801-induced psychosis): 5 mg/kg
